For data set [1], the system named is rats. Description: Acute oral LD50 in rats. Type of data set: in vivo, rat. The conditions noted are these: for acute oral LD50: rats of both sexes, oral intubation. As to the method:
Compound III was weighed into an Erlenmeyer flask. It was diluted at 30 and 50% with carboxymethylcellulose and administered by oral intubation.
The compound was tested on 40 rats (20 males/20 females). They were 6 to 7 weeks old and weighed 160 to 180 g.
The males and females were segregated and housed in Macrolon cages in groups of 5 in a room kept at a constant temperature of 22 ±1° C. and a relative humidity of approximately 50%. They received water and food ad libitum. The rats were starved during one night before starting the treatment. The doses were 3170, 4640, 6000 and 10,000 mg/kg body weight.

In data set [2] the test system is rats. Description: No effect level, 90-day dietary administration to rats with 28-day recovery. Type of data set: in vivo, rat. The conditions noted are these: for no effect level (dietary concentration): diet. The procedure: Compound III was administered in the diet to groups of 30 (groups 2 and 3) and 40 (group 4) rats at concentrations of 300, 1000 and 3000 ppm respectively (equivalent to an average daily intake of 19, 62 and 179 mg/kg body weight), for not less than 90 days. Forty rats in the control group received the same diet but without the addition of Compound III.
Ten rats (5+5) from each of groups 1 (control) and 4 (3000 ppm) were retained without treatment for 28 days after the end of the main study, as a recovery experiment.

Data set [3] in a line: Heat stability, bulk-polymerised PVC at 0.15 g Sn/100 g PVC (Example 12). The conditions noted are these: 0.3 part montan wax, 0.15 g of Sn/100 g of PVC. The procedure: (§1) A dry blend, consisting of 100 parts of suspension PVC, 0.5 part of montan wax, 1.0 part of monoglycerol ester and 1.0 part of organo-tin stabiliser according to the table below, is milled on a laboratory mill at 190° C. Every 5 minutes, an 0.3 mm thick piece of film is taken off to asist the discolouration.
Moulding materials consisting of 100 parts of bulk-polymerised PVC and 0.3 part of montan wax together with the organo-tin stabilisers according to the table which follows are examined for their heat stability, analogously to Example 11. The amounts of stabiliser are calculated to correspond to the use of 0.15 g of Sn/100 g of PVC.

The nature of data set [4]: Milling test, impact-modified suspension PVC (Example 15). The conditions noted are these: 190° C. The procedure:
Experiment 1: A dry blend, consisting of 100 parts by weight of suspension PVC (K-value 58), 1.0 part by weight of wax ester and 0.2 part by weight of montan wax as the lubricant, 1.0 part by weight of acrylic resin as a processing aid, 12.0 parts by weight of MBS modifying resin, as an additive to improve impact strength, and 0.8 part by weight of methyl-tin tris-(myristyl-thioglycollate), corresponding to 0.09 part of tin, is milled on a laboratory mill at 190° C. Every 5 minutes, an 0.3 mm thick piece of film is removed to assess the discolouration.
Experiment 2: The above experiment is repeated with 1.1 parts by weight of the same stabiliser, corresponding to 0.13 part of tin. The very slight yellow discolouration in this case occurs after 20 minutes, and the light yellow discolouration after 25 minutes.

The nature of data set [5]: Heat stability test on laboratory mill (Example 11). The note with it: 190° C., 1.0 part stabiliser per 100 parts suspension PVC, 0.5 part montan wax, 1.0 part monoglycerol ester. The procedure:
as §1

The nature of data set [6]: Milling test, vinyl chloride/vinyl acetate copolymer (Example 13). The note with it: 20 minutes at 180° C., 1.35 g stabiliser, 0.13 g of tin per 100 parts of copolymer. An excerpt:
100 parts of a vinyl chloride/vinyl acetate copolymer (vinyl acetate content 10%, K-value 60 to 61) are premixed with 0.5 part of montan wax, 1.0 part of monoglycerol ester and an organo-tin stabiliser of the formula C8 H17 Sn(SCH2 COO-n-C16 H33)3. The amount of organo-tin stabiliser (1.35 g) is so chosen that 0.13 g of tin are present per 100 parts of copolymer.

A short description of data set [7]: Milling test, plasticised suspension PVC (Example 14). The conditions noted are these: 180° C., 0.5 part by weight stabiliser. As to the method: A mixture of 100 parts by weight of suspension PVC (K-value 71), 40 parts by weight of di-2-ethylhexyl phthalate, 0.3 part by weight of montan wax and 0.5 part by weight of octyl-tin tris-cetyl-thioglycollate, corresponding to 0.05 g of Sn/100 g of PVC, is milled on a laboratory mill at 180° C. until yellowing beings to occur.

The conditions of data set [8]: tin content of 49%; known stabiliser; cited from earlier work.
The mark [9] stands for this setting: 300, 1000 and 3000 ppm in diet, not less than 90 days.
The mark [10] stands for this setting: 0.8 part by weight stabiliser, 0.09 part of tin (Experiment 1).
[11] abbreviates: 1.1 parts by weight stabiliser, 0.13 part of tin (Experiment 2).

Regarding `CCCCCCCCCCCCCCOC(=O)C[S][Sn]([CH2]CCCCCCC)([S]CC(=O)OCCCCCCCCCCCCCC)[S]CC(=O)OCCCCCCCCCCCCCC` [Compound III, n-C8 H17 Sn(SCH2 COO-n-C14 H29)3], the “mortality, acute test” value in data set [1] (3170, 4640, 6000 and 10,000 mg/kg body weight, 14 days) is “No animal died”. Also, the “autopsy findings, acute test” value in data set [1] (killed animals, 3170 to 10,000 mg/kg) is given as “no substance related gross organ changes were seen”. Also, the acute toxicity grading result in data set [1] (rat, oral) was “slight acute toxicity”. The “acute oral LD50” value in data set [1] (14 days) is recorded as “greater than 10,000 mg/kg”. In data set [2] (setting [9]), the “clinical symptoms, 90-day diet study” value was “no clinical symptoms were recorded” and the “deaths, 90-day diet study” value is recorded as “No deaths occured”. In addition, the “body weight gains, food consumption, laboratory parameters, organ weight data after recovery” value in data set [2] (group 4 (3000 ppm) versus control, 28 days recovery) is “no significant difference”. For the same compound, the “histopathological changes after recovery” value in data set [2] (group 4 (3000 ppm), 28 days recovery) is listed as “No histopathological changes were seen”. The body weight gain entry in data set [2] (male rats, 3000 ppm, following day 14, versus untreated controls) was “gained less body weight than untreated controls”. Moreover, the “body weights at termination of treatment” value in data set [2] (male rats, 3000 ppm, versus untreated control animals) is recorded as “slightly below those from untreated control animals”. Further, in data set [2] (rats, not less than 90 days), the “no effect level (dietary concentration)” value is given as 3000 ppm. Moreover, the “no effect level as average daily intake” value in data set [2] (rats, equivalent to 3000 ppm in diet, 129600 min) is on record as 179 mg/kg body weight. Moreover, the feed consumption result in data set [2] (top dose rats (3000 ppm)) is recorded as “decreased feed consumption”.

With `CCC[CH2][Sn]([S]CC(=O)OCCCCCCCCCCCCCCCC(C)C)([S]CC(=O)OCCCCCCCCCCCCCCCC(C)C)[S]CC(=O)OCCCCCCCCCCCCCCCC(C)C` [Example 8, butyl-tin tris-(i-octadecyl thioglycollate)], in data set [3], the “Time in minutes for which the films remain colourless” value is 30 min.

Take `CCCCCCCCCCCCCCCCOC(=O)C[S][Sn]([CH2]CCC)([S]CC(=O)OCCCCCCCCCCCCCCCC)[S]CC(=O)OCCCCCCCCCCCCCCCC` [Example 3, butyl-tin tris-(cetyl-thioglycollate)]: the “Time in minutes for which the films remain colourless” value in data set [3] came to 35 min.

On to `CCCCCCC[CH2][Sn]([S]CC(=O)OCCCCCC(C)C)([S]CC(=O)OCCCCCC(C)C)[S]CC(=O)OCCCCCC(C)C` [Compound II, n-C8 H17 Sn(SCH2 COO-i-C8 H17)3, reference compound], for which, in data set [1] (14 days), the “acute oral LD50” value turned out to be 5000 mg/kg. Besides, in data set [2] (rats, not less than 90 days), the “no effect level (dietary concentration)” value was found to be 500 ppm.

Regarding `CCCCCCCCCCCCCCOC(=O)C[S][Sn]([CH3])([S]CC(=O)OCCCCCCCCCCCCCC)[S]CC(=O)OCCCCCCCCCCCCCC` [Example 1, methyl-tin tris-(myristyl-thioglycollate)], in data set [4] (setting [10]), the “milling time to reach a light yellow discolouration” value was determined as 20 min and the “milling time to reach a very slight yellow discolouration” value stood at 15 min. In addition, in data set [4] (setting [11]), the “milling time to light yellow discolouration” value amounted to 25 min and the “milling time to very slight yellow discolouration” value came out at 20 min. Moreover, in data set [5], the “Heat stability of the moulding material (time to recognisable colour change to light brown-yellow)” value turned out to be 25 min.

Turning to `CCCCCCCCCCCCCCCCOC(=O)C[S][Sn]([CH2]CCCCCCC)([S]CC(=O)OCCCCCCCCCCCCCCCC)[S]CC(=O)OCCCCCCCCCCCCCCCC` [Example 10, octyl-tin tris-(cetyl-thioglycollate)], in data set [5], the “Heat stability of the moulding material (time to recognisable colour change to light brown-yellow)” value is 25 min. In data set [6], the “yellowing detectable after milling” value is listed as “only very slight yellowing is detectable”. Moreover, the “time until a very slight yellowing is just detectable” value in data set [7] (0.05 g of Sn/100 g of PVC, 40 parts di-2-ethylhexyl phthalate) is 74 min. For the same compound, in data set [7] (105 minutes), the “appearance of the mill hide after 105 minutes” value is recorded as “slightly yellow”.

With “butyl-tin tris(alfyl(12)-thioglycollate) [Example 4]”, the “Time in minutes for which the films remain colourless” value in data set [3] amounted to 30 min.

Turning to butylthiostannonic acid, the “stabiliser effect relative to tin content” value in data set [8] is “relatively slight effect”.

For the compound `CCCCCCCCCCCCOC(=O)C[S][Sn]([CH2]CCC)([S]CC(=O)OCCCCCCCCCCCC)[S]CC(=O)OCCCCCCCCCCCC` [Example 2, butyl-tin tris-(lauryl-thioglycollate)], the “Time in minutes for which the films remain colourless” value in data set [3] amounted to 25 min.

As to `CCCCCCC[CH2][Sn]([CH2]CCCCCCC)([S]CC(=O)OCCCCCC(C)C)[S]CC(=O)OCCCCCC(C)C` [Compound I, (n-C8 H17)2 Sn(SCH2 COO-i-C8 H17)2, reference compound], the “acute oral LD50” value in data set [1] (14 days) stood at 2000 mg/kg. Further, the “no effect level (dietary concentration)” value in data set [2] (rats, not less than 90 days) turned out to be 25 ppm.

“octyl-tin tris(alfyl(14)-thioglycollate) [Example 9]”: in data set [3], the “Time in minutes for which the films remain colourless” value is 35 min.

As to “butyl:tin tris(alfyl(14)-thioglycollate) [Example 5]”, in data set [5], the “Heat stability of the moulding material (time to recognisable colour change to light brown-yellow)” value is 25 min.

The record behind these values is patent US4193913A, “Thermoplastic vinyl chloride polymers containing monoalkyl-tin-stabilizers” (priority 1978, dated 1980).
